Results published in US12473282B2, “Biphenyl fluorine double bond derivative, preparation method therefor, and pharmaceutical application thereof” (Abbisko Therapeutics Co., Ltd., priority 2020, dated 2025).

Test: Jurkat reporter gene cellular assay
Assay type: cell-based
Conditions: Homo sapiens; Jurkat/NF-κB-luc/PD1 + Raji-PD-L1 coculture, OKT3 1 μg/mL, 6 hrs, activation fold; read-out: Cell Activity EC50
Procedure: The effect of compounds of the examples of the present invention and positive compounds on the interaction between PD-1 and PD-L1 expressed on cell surfaces, and the related influence on T cell functions, were determined by a Jurkat reporter gene cellular assay.
Briefly, the reporter gene plasmid of NF-κB-luc and the plasmid of human PD-1 were transfected into Jurkat cells to establish a stably transfected cell line capable of stably expressing both PD-1 and NF-κB-Luc reporter genes; the expression level of PD-1 on the cell surface was confirmed by flow cytometry; and the expression of the reporter gene was confirmed via the response of the reporter gene stimulated by OKT-3 and Raiji cells.
In addition, the plasmid of human PD-L1 was transfected into Raji cells to obtain a cell line capable of stably expressing PD-L1. Jurkat/NF-κB-luc/PD1 cells and Raji-PD-L1 cells were then cocultured and stimulated with OKT-3. On this basis, the compounds were added, and the enhancement of the signal pathway of T cell activation by the inhibitory effect of the compounds on the interaction between PD-1 and PD-L1 was evaluated by readings of reporter gene responses. The specific experimental process was as follows: • 1. 30 μL of compound or antibody solution was added to each well of a white 96-well plate (corning, 3610) at different diluted concentrations, and 10 μL of OKT3 (Biolegend, 317326) was then added (the final concentration of OKT3: 1 μg/mL); • 2. 20 μL of Raji-PD-L1 cell suspension was added to each well with 5*10^4 cells for each well, and was incubated in an incubator for 20 min; • 3. 20 μL of Jurkat/NF-Kb-luc/PD-1 cell suspension was added to each well with 5*10^4 cells for each well, and well mixed, and 6 hrs later, Bright-glo (Promega, E2620) was applied and plates were read on Envision; • 4. The reading of each well treated with the compound was compared with the reading of each well treated with DMSO to obtain the activation fold of the compound; • 5. EC50 values of compounds and positive compounds of the examples of the present invention were determined by non-linear regression analysis of activation folds at different compound concentrations.

| Compound | EC50 [nM] |
| --- | --- |
| Cc1c(/C=C(\F)c2nc3c(n2C)CCNC3)cccc1-c1cccc(NC(=O)c2nc3c(n2C)CCN(CCC24CCC(C(=O)O)(CC2)C4)C3)c1C [Example 2, (Z)-4-(2-(2-((3′-(2-fluoro-2-(1-methyl-4,5,6,7-tetrahydro-1H-imidazo [4,5-c]pyridin-2-yl)vinyl)-2,2′-dimethyl-[1,1′-biphenyl]-3-yl)carbamoyl)-1-methyl-1,4,6,7-tetrahydro-5H-imidazo[4,5-c]pyridin-5-yl)ethyl)bicyclo[2.2.1]heptane-1-carboxylic acid] | 244 |
| Cc1c(/C=C(\F)c2nc3c(n2C)CCN(C[C@@H](C)O)C3)cccc1-c1cccc(NC(=O)c2nc3c(n2C)CCN(CCC24CCC(C(=O)O)(CC2)C4)C3)c1C [Example 3, (R,Z)-4-(2-(2-((3′-(2-fluoro-2-(5-(2-hydroxypropyl)-1-methyl-4,5,6,7-tetrahydro-1H-imidazo[4,5-c]pyridin-2-yl)vinyl)-2,2′-dimethyl-[1,1′-biphenyl]-3-yl)carbamoyl)-1-methyl-1,4,6,7-tetrahydro-5H-imidazo[4,5-c]pyridin-5-yl)ethyl)bicyclo[2.2.1]heptane-1-carboxylic acid] | 95.2 |
| Cc1c(/C=C(\F)c2nc3c(n2C)CCN(C(C)C)C3)cccc1-c1cccc(NC(=O)c2nc3c(n2C)CCN(CCC24CCC(C(=O)O)(CC2)C4)C3)c1Cl [Example 4, (Z)-4-(2-(2-((2-chloro-3′-(2-fluoro-2-(5-isopropyl-1-methyl-4,5,6,7-tetrahydro-1H-imidazo[4,5-c]pyridin-2-yl)vinyl)-2′-methyl-[1,1′-biphenyl]-3-yl)carbamoyl)-1-methyl-1,4,6,7-tetrahydro-5H-imidazo [4,5-c]pyridin-5-yl)ethyl)bicyclo[2.2.1]heptane-1-carboxylic acid] | 289 |
| Cc1c(/C=C(\F)c2nc3c(n2C)CCN(CCC24CCC(C(=O)O)(CC2)C4)C3)cccc1-c1cccc(NC(=O)c2nc3c(n2C)CCN(C(C)C)C3)c1C [Example 5, (Z)-4-(2-(2-(1-fluoro-2-(3′-(5-isopropyl-1-methyl-4,5,6,7-tetrahydro-1H-imidazo[4,5-c]pyridine-2-carboxamido)-2,2′-dimethyl-[1,1′-biphenyl]-3-yl)vinyl)-1-methyl-1,4,6,7-tetrahydro-5H-imidazo[4,5-c]pyridin-5-yl)ethyl)bicyclo[2.2.1]heptane-1-carboxylic acid] | 719 |
| Cc1c(/C=C(\F)c2nc3c(n2C)CCN(C(C)C)C3)cccc1-c1cccc(NC(=O)c2nc3c(n2C)CCN(CC24CCC(C(=O)O)(CC2)C4)C3)c1C [Example 6, (Z)-4-((2-((3′-(2-fluoro-2-(5-isopropyl-1-methyl-4,5,6,7-tetrahydro-1H-imidazo[4,5-c]pyridin-2-yl)vinyl)-2,2′-dimethyl-[1,1′-biphenyl]-3-yl)carbamoyl)-1-methyl-1,4,6,7-tetrahydro-5H-imidazo[4,5-c]pyridin-5-yl)methyl)bicyclo[2.2.1]heptane-1-carboxylic acid] | 973 |
| Cc1c(/C=C(\F)c2cc(C3CC3)c(CN3CCCC[C@H]3C(=O)O)cn2)cccc1-c1cccc(NC(=O)c2nc3c(n2C)CCN(C(C)C)C3)c1C [Example 18, (S,Z)-1-((4-cyclopropyl-6-(1-fluoro-2-(3′-(5-isopropyl-1-methyl-4,5,6,7-tetrahydro-1H-imidazo[4,5-c]pyridine-2-carboxamido)-2,2′-dimethyl-[1,1′-biphenyl]-3-yl)vinyl)pyridin-3-yl)methyl)piperidine-2-carboxylic acid] | 249 |
| Cc1c(/C=C(\F)c2cc(C3CC3)c(CN3CCCC[C@H]3C(=O)O)cn2)cccc1-c1cccc(NC(=O)c2nc3c(n2C)CCN(C[C@@H](C)O)C3)c1C [Example 19, (S)-1-((4-cyclopropyl-6-((Z)-1-fluoro-2-(3′-(5-((R)-2-hydroxypropyl)-1-methyl-4,5,6,7-tetrahydro-1H-imidazo[4,5-c]pyridine-2-carboxamido)-2,2′-dimethyl-[1,1′-biphenyl]-3-yl)vinyl)pyridin-3-yl)methyl)] | 192 |
